Measured values taken from patent US6831078B1, “Azetidinecarboxamide derivatives for treating CNS disorders” (Vernalis Research Limited, priority 1998, dated 2004).
Where a name gives a salt, the structure may show the parent alone. Marks after values point to notes of the source that are not given here.

test system: 3-MPA-Induced Seizures; experiment: Antagonism of 3-MPA-induced seizures; format: in vivo; settings: mg/kg i.v. of 3-MPA required to evoke a seizure response; test drug 30 mg/kg p.o. 60 min before 3-MPA; male T/O mice
Protocol: Several animal seizure models are available for the screening and characterisation of anticonvulsant (antiepileptic) drugs, Most models employ a chemical convulsant to induce seizures and the anticonvulsant potencies of novel compounds are measured in terms of their ability to increase the dose of convulsant required to induce a seizure response (or to prolong the latency to seizure onset following a bolus dose of the convulsant). Most chemical convulsants work by blocking the neurotran […] function of gamma-aminobutyric acid (GABA), the predominant inhibitory neurotransmitter in the mammalian brain. This can be achieved by blocking the postsynaptic action of GABA using pentylenetetrazol or bicuculline, or via a presynaptic action using a GABA synthesis inhibitor to decrease GABA release into the synapse. […] Male albino […] (obtained from Tuck) weighing 28-40 g were used in these studies. […] Immediately following 3-MPA administration, each mouse was placed individually into a cage for observation. The seizure response of each animal was scored quantally as present or absent (response or non-response) during the 5 min period immediately following 3-MPA administration. A seizure response was defined as the onset of the initial clonic phase of the seizure (abrupt loss of righting reflex accompanied by vocalisation). The seizure threshold (in terms of mg/kg i.v. of 3-MPA required to evoke a seizure response) was determined in each treatment group by a sequential up/down method followed by modified probit analysis of the quantal data. […] In these studies, 3-MPA was obtained from Sigma. […] Drugs were administered in a dose volume of 10 ml/kg body weight.

Row | Compound | SC = Seizure threshold after treatment with test drug
1 | C[C@H](O)CNC(=O)N1CC(c2ccc(C(F)(F)F)cc2)C1 [Example 15] | 58.4 mg/kg
2 | C=CCNC(=O)N1CC(c2ccc(Cl)cc2)C1 [Example 1] | 42.7 mg/kg
3 | C#CCNC(=O)N1CC(c2ccc(C(C)(C)C)cc2)C1 [Example 3, 3-(4-tert-Butylphenyl)-N-(2-propynyl)azetidine-1-carboxamide] | 21.4 mg/kg
4 | C[C@@H](O)CNC(=O)N1CC(c2ccc(C(C)(C)C)cc2)C1 [Example 4, (R)-3-(4-tert-Butylphenyl)-N-(2-hydroxypropyl)azetidine-1-carboxamide] | 27.3 mg/kg
5 | C[C@@H](O)CNC(=O)N1CC(c2ccc(Cl)cc2)C1 [Example 9, (R)-3-(4-Chlorophenyl)-N-(2-hydroxypropyl)azetidine-1-carboxiamide] | 29.7 mg/kg
6 | C#CCNC(=O)N1CC(c2ccc(Cl)cc2)C1 [Example 8, (3-(4-Chlorophenyl)-N-2-propynyl)azetidine-1-carboxamide] | 100 mg/kg
7 | C#CCNC(=O)N1CC(c2cccc(C(F)(F)F)c2)C1 [Example 19, 3-(3-(Trifluoromethyl)phenyl)-N-(2-propynyl)azetidine-1-carboxamide] | >200.0^a mg/kg
8 | C[C@H](O)CNC(=O)N1CC(c2ccc(F)cc2)C1 [Example 10] | 95.8 mg/kg
9 | C[C@@H](O)CNC(=O)N1CC(c2ccc(F)cc2)C1 [Example 7, (R)-3-(4-Fluorophenyl)-N-(2-hydroxypropyl)azetidine-1-carboxamide] | 54.4 mg/kg
10 | C#CCNC(=O)N1CC(c2ccc(F)cc2)C1 [Example 6, 3-(4-Fluorophenyl)-N-(2-propynyl)azetddine-1-carboxamide] | 59.5 mg/kg
11 | C=CCNC(=O)N1CC(c2ccc(C(C)(C)C)cc2)C1 [Example 2, 3-(4-tert-Butylphenyl)-N-(2-propenyl)azeddine-1-carboxamide] | 24.2 mg/kg
12 | C=CCNC(=O)N1CC(c2ccc(F)cc2)C1 [Example 5, 3-(4-Fluoropbenyl)-N-(2-propenyl)azetidine-1-carboxamide] | 32.4 mg/kg

test system: not given; experiment: not given; settings: not given

Row | Compound | melting point
13 | C[C@@H](O)CNC(=O)N1CC(c2ccc(F)c(C(F)(F)F)c2)C1 [Example 27] | 69 to 71 °C
14 | CC(C)(O)CNC(=O)N1CC(c2cccc(Cl)c2)C1 [Example 29] | 102 °C
15 | CCCNC(=O)N1CC(c2ccc(F)cc2)C1 [Example 45] | 117 to 118.5 °C
16 | C=CCNC(=O)N1CC(c2cccc(Cl)c2)C1 [Example 53] | 65 to 66 °C
17 | C#CCNC(=O)N1CC(c2ccc(F)c(C(F)(F)F)c2)C1 [Example 28] | 119 °C
18 | CCCNC(=O)N1CC(c2ccc(C(F)(F)F)cc2)C1 [Example 47] | 127 to 128.5 °C
19 | C#CCNC(=O)N1CC(c2ccc(Cl)c(F)c2)C1 [Example 31] | 132 °C
20 | C[C@H](O)CNC(=O)N1CC(c2cccc(Cl)c2)C1 [Example 51] | 78 to 80 °C
21 | C#CCNC(=O)N1CC(c2ccc(F)c(F)c2)C1 [Example 25] | 123 °C
22 | COCC(C)NC(=O)N1CC(c2ccc(Cl)cc2)C1 (stereo not shown) [Example 38] | 110 °C
23 | C#CCNC(=O)N1CC(c2ccc(C(C)(C)C)cc2)C1 [Example 3, 3-(4-tert-Butylphenyl)-N-(2-propynyl)azetidine-1-carboxamide] | 141 °C
24 | C=CCNC(=O)N1CC(c2cccc(C(F)(F)F)c2)C1 [Example 52] | 64 to 66 °C
25 | O=C(NCCc1ccccn1)N1CC(c2ccc(Cl)cc2)C1 [Example 43] | 125 °C
26 | C[C@@H](O)CNC(=O)N1CC(c2ccc(F)cc2F)C1 [Example 36] | 88 to 89 °C
27 | C[C@H](NC(=O)N1CC(c2ccc(Cl)cc2)C1)[C@H](O)c1ccccc1 [Example 42] | 120 to 122 °C
28 | NCC1CCN(C(=O)N2CC(c3ccc(Cl)cc3)C2)CC1 [Example 44] | 137 to 138 °C
29 | C=CCNC(=O)N1CC(c2ccc(C(F)(F)F)cc2)C1 [Example 46] | 136 to 137.5 °C
30 | CC(C)(O)CNC(=O)N1CC(c2cccc(C(F)(F)F)c2)C1 [Example 56] | 94.5 to 96 °C

Row | Compound | melting point
31 | O=C(NCCO)N1CC(c2ccc(F)cc2)C1 [Example 57] | 99 to 101 °C
32 | C[C@@H](O)CNC(=O)N1CC(c2ccc(F)c(F)c2)C1 [Example 21] | 108 to 109 °C
33 | C[C@@H](O)CNC(=O)N1CC(c2cccc(Cl)c2Cl)C1 [Example 35] | 111 °C
34 | C=CCNC(=O)N1CC(c2cccc(F)c2)C1 [Example 54] | 62.5 to 63.5 °C
35 | C[C@@H](O)CNC(=O)N1CC(c2ccccc2Cl)C1 [Example 34] | 109 °C
36 | C#CCNC(=O)N1CC(c2ccc(F)c(Cl)c2)C1 [Example 26] | 133 °C
37 | C[C@H](CO)NC(=O)N1CC(c2ccc(Cl)cc2)C1 [Example 39] | 71 to 75 °C
38 | C#CCNC(=O)N1CC(c2ccccc2C(F)(F)F)C1 [Example 33] | 101 °C
39 | CC(C)(O)CNC(=O)N1CC(c2ccc(F)cc2)C1 [Example 55] | 77 to 78.5 °C
40 | NC(=O)N1CC(c2cccc(C(F)(F)F)c2)C1 [Example 37] | 198 °C
41 | C[C@H](CO)NC(=O)N1CC(c2ccc(Cl)cc2)C1 [Example 40] | 82 to 85 °C
42 | C[C@@H](O)CNC(=O)N1CC(c2ccc(F)cc2)C1 [Example 7, (R)-3-(4-Fluorophenyl)-N-(2-hydroxypropyl)azetidine-1-carboxamide] | 104 to 105 °C
43 | CC(C)(CO)NC(=O)N1CC(c2ccc(Cl)cc2)C1 [Example 41] | 134 to 135 °C
44 | C[C@H](O)CNC(=O)N1CC(c2cc(Cl)cc(Cl)c2)C1 [Example 49] | 110 to 111 °C
45 | C[C@@H](O)CNC(=O)N1CC(c2ccccc2C(F)(F)F)C1 [Example 32] | 89 °C
46 | C[C@H](O)CNC(=O)N1CC(c2cccc(F)c2)C1 [Example 48] | 79.5 to 80 °C
47 | C[C@@H](O)CNC(=O)N1CC(c2ccc(F)c(Cl)c2)C1 [Example 23] | 83 to 84 °C

Continued, values first:

Row | melting point | Compound
48 | 101.5 to 110.25 °C | C#CCNC(=O)N1CC(c2cccc(F)c2)C1 [Example 72]
49 | 106 to 107 °C | C[C@@H](O)CNC(=O)N1CC(c2ccc(C(F)(F)F)cc2F)C1 [Example 58]
50 | 123 to 124 °C | CC(C)(O)CNC(=O)N1CC(c2ccc(C(F)(F)F)cc2)C1 [Example 84]
51 | 205 to 208.5 °C | NC(=O)N1CC(c2ccc(F)cc2)C1 [Example 67]
52 | 77.5 to 79 °C | C[C@@H](O)CNC(=O)N1CC(c2cccc(F)c2)C1 [Example 83]
53 | 112.5 to 113.5 °C | CC(C)(O)CNC(=O)N1CC(c2cc(F)cc(Cl)c2)C1 [Example 68]
54 | 114 to 115.5 °C | CC(C)(O)CNC(=O)N1CC(c2ccc(Cl)cc2)C1 [Example 66]
55 | 100 to 102 °C | CCC(C)NC(=O)N1CC(c2ccc(F)cc2)C1 (stereo not shown) [Example 74]
56 | 77 to 79 °C | CC[C@@H](O)CNC(=O)N1CC(c2ccc(F)cc2)C1 (hydrate or solvate) [Example 75]
57 | 92.5 to 94 °C | CC(O)CNC(=O)N1CC(c2ccc(Cl)cc2)C1 (stereo not shown) [Example 71]
58 | 90 to 93 °C | O=C(NCCCO)N1CC(c2ccc(F)cc2)C1 [Example 65]
59 | 198 to 200.5 °C | NC(=O)N1CC(c2cc(F)cc(Cl)c2)C1 [Example 69]
60 | 139.5 to 141 °C | CC(=O)CNC(=O)N1CC(c2ccc(C(F)(F)F)cc2)C1 [Example 80]
61 | 81 to 82.5 °C | C[C@@H](O)CNC(=O)N1CC(c2cc(F)cc(Cl)c2)C1 [Example 70]
62 | 183 to 184 °C | CC(C)(N)CNC(=O)N1CC(c2ccc(Cl)cc2)C1 (as salt: HCl) [Example 79]
63 | 90 to 92 °C | O=C(NC[C@H](O)CO)N1CC(c2ccc(Cl)cc2)C1 [Example 78]
64 | 108.5 to 110 °C | C#CCNC(=O)N1CC(c2cc(F)cc(Cl)c2)C1 [Example 61]
65 | 118 to 120 °C | C[C@@H](CO)NC(=O)N1CC(c2ccc(F)cc2)C1 [Example 77]
66 | 90 to 105 °C (dec.) | C#CCNC(=O)N1CC(c2cccc(Cl)c2)C1 [Example 59]
67 | 141 to 142.5 °C | O=C(N[C@@H]1CCCC[C@H]1O)N1CC(c2ccc(F)cc2)C1 [Example 76]
68 | 143 to 144 °C | C[C@@H](O)CNC(=O)N1CC(c2ccc3ccccc3c2)C1 [Example 63]
69 | 110 to 111.5 °C | CC(C)(O)CNC(=O)N1CC(c2ccc(F)c(C(F)(F)F)c2)C1 [Example 64]

test system: elevated zero-maze model of anxiety; experiment: not given; settings: dose of 100 mg/Kg; orally by gavage 1 hour prior to zero-maze testing

Row | Compound | anxiolytic activity (increase in the frequency of head dips)
70 | C#CCNC(=O)N1CC(c2ccc(F)cc2)C1 [Example 6, 3-(4-Fluorophenyl)-N-(2-propynyl)azetddine-1-carboxamide] | effective
